What follows are compounds tested on C3H10T1/2 cells (assay: C3H assay: differentiation of C3H10T1/2 cells by mSHH, measurement of alkaline phosphatase). Settings: Mus musculus, C3H 10T1/2; C3H10T1/2 cells stimulated with mSHH for 72 hours; alkaline phosphatase activity; read-out: IC50 Ranges.
Type: cell-based, mouse

Structure (SMILES) | IC50
Cc1ccc(S(=O)(=O)n2cc(C3=CCN(S(=O)(=O)C4CCN(C(=O)OC(C)(C)C)CC4)CC3)c3cncnc32)cc1 [Compound 235, tert-butyl 4-[[4-[7-(4-methylphenyl)sulfonylpyrrolo[2,3-d]pyrimidin-5-yl]-3,6-dihydro-2H-pyridin-1-yl]sulfonyl] piperidine-1-carboxylate] | 0.1 to 1 µM
Cc1cc(C#N)ccc1N1CCN(S(=O)(=O)C2CN(C(=O)OC(C)(C)C)C2)CC1 [Compound 240, tert-butyl 3-[4-(4-cyano-2-methylphenyl)piperazin-1-yl]sulfonylaze-tidine-1-carboxylate] | 1 to 10 µM
COC(=O)c1csc(N2CC(S(=O)(=O)N3CCC(c4c[nH]c5ncccc45)CC3)C2)n1 [Compound 241, methyl 2-[3-[4-(1H-pyrrolo[2,3-b]pyridin-3-yl)piperidin-1-yl]sulfonylaze-tidin-1-yl]-1,3-thiazole-4-carboxylate] | 0.1 to 1 µM
N#Cc1ccnc(N2CC(S(=O)(=O)N3CCC(c4c[nH]c5ncccc45)CC3)C2)c1 [Compound 242, 2-[3-[4-(1H-pyrrolo[2,3-b]pyridin-3-yl)piperidin-1-yl]sulfonylaze-tidin-1-yl] pyridine-4-carbonitrile] | 0.01 to 0.1 µM
CCOc1cccc(N2CC(S(=O)(=O)N3CCC(c4c[nH]c5ncccc45)CC3)C2)n1 [Compound 243, 3-[1-[1-(6-ethoxypyridin-2-yl)azetidin-3-yl]sulfonylpiper-idin-4-yl]-1H-pyrrolo[2,3-b]pyridine] | 0.01 to 0.1 µM
COC(=O)c1cnc(N2CC(S(=O)(=O)N3CCC(c4c[nH]c5ncccc45)CC3)C2)s1 [Compound 245, methyl 2-[3-[4-(1H-pyrrolo[2,3-b]pyridin-3-yl)piperidin-1-yl]sulfonylaze-tidin-1-yl]-1,3-thiazole-5-carboxylate] | 0.1 to 1 µM

Other lines, results leading:

IC50 | Structure (SMILES)
0.1 to 1 µM | CC(C)(C)OC(=O)N1CC(S(=O)(=O)N2CC=C(c3coc4cccnc34)CC2)C1 [Compound 231, tert-butyl 3-[(4-furo[3,2-b]pyridin-3-yl-3,6-dihydro-2H-pyridin-1-yl)sulfonyl]aze tidine-1-carboxylate]
0.1 to 1 µM | CC(C)(C)OC(=O)N1CCC(S(=O)(=O)N2CC=C(c3coc4cccnc34)CC2)CC1 [Compound 232, tert-butyl 4-[(4-furo[3,2-b]pyridin-3-yl-3,6-dihydro-2H-pyridin-1-yl)sulfonyl]pip eridine-1-carboxylate]
1 to 10 µM | CC(C)(C)OC(=O)N1CCC(S(=O)(=O)N2CC=C(c3c[nH]c4ncncc34)CC2)CC1 [Compound 233, tert-butyl 4-[[4-(7H-pyrrolo[2,3-d]pyrimidin-5-yl)-3,6-dihydro-2H-pyridin-1-yl]sulfonyl] piperidine-1-carboxylate]
0.1 to 1 µM | CC(C)(C)OC(=O)N1CC(S(=O)(=O)N2CC=C(c3cnc4occc4c3)CC2)C1 [Compound 234, tert-butyl 3-[(4-furo[2,3-b]pyridin-5-yl-3,6-dihydro-2H-pyridin-1-yl)sulfonyl]aze tidine-1-carboxylate]
1 to 10 µM | CC(C)(C)OC(=O)N1CCC(S(=O)(=O)N2CC=C(c3ccnc4[nH]ccc34)CC2)CC1 [Compound 236, tert-butyl 4-[[4-(1H-pyrrolo[2,3-b]pyridin-4-yl)-3,6-dihydro-2H-pyridin-1-yl]sulfonyl] piperidine-1-carboxylate]
0.1 to 1 µM | Cc1ccc(S(=O)(=O)n2ccc3c(C4=CCN(S(=O)(=O)C5CCN(C(=O)OC(C)(C)C)CC5)CC4)ccnc32)cc1 [Compound 237, tert-butyl 4-[[4-[1-(4-methylphenyl)sulfonylpyrrolo [2,3-b]pyridin-dihydro-2H-pyridin-1-yl]sulfonyl]piperidine-1-carboxylate]
1 to 10 µM | CC(C)(C)OC(=O)N1CCC(S(=O)(=O)N2CC=C(c3ncnc4[nH]ccc34)CC2)CC1 [Compound 238, tert-butyl 4-[[4-(7H-pyrrolo[2,3-d]pyrimidin-4-yl)-3,6-dihydro-2H-pyridin-1-yl]sulfonyl] piperidine-l-carboxylate]
